The source of these data is ChEMBL document CHEMBL1201862, “PubChem BioAssay data set” (2004).

Test systems include ACHN; CCRF-CEM; DU-145; HL-60; HOP-62; IGROV-1; K562; LOX IMVI; M14; MCF7; MDA-MB-435; MOLT-4; NCI-H226; OVCAR-3; RPMI-8226; SK-MEL-2; SK-OV-3; SNB-19; T47D; TK-10.
Assay in all cases: NCI tumour cell line growth inhibition, 48 h

SMILES strings stand for the structures.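 Five concentrations, 48 hours, 96-well plates. GI50 is the concentration that inhibits growth by half.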 The source made the active and inactive calls. Cut-off read from the data, not from the text of the source: active = GI50 up to about 1.1 µM and inactive = higher.

With `C/C(CC(O)(C(F)(F)F)C(F)(F)F)=N\NC(N)=O`, the GI50 in the assay with ACHN, in the assay on CCRF-CEM, in the assay with DU-145, in the assay with HL-60, with HOP-62 and in the assay on IGROV-1 was > 10 µM (inactive) throughout. Besides, the GI50 with K562, in the assay with LOX IMVI, with M14, in the assay on MCF7, in the assay on MDA-MB-435 and in the assay on MOLT-4 was > 10 µM (inactive) in each case. In addition, the GI50 in the assay on NCI-H226, in the assay with OVCAR-3, with RPMI-8226, with SK-MEL-2, in the assay on SK-OV-3 and in the assay with SNB-19 was > 10 µM (inactive) each time. For the same molecule, the GI50 in the assay on T47D and in the assay with TK-10 was > 10 µM (inactive) in each case.

As to `CC(NNC(=O)c1ccncc1)c1ccccc1` (stereo not given), the GI50 in the assay on ACHN, in the assay on CCRF-CEM, in the assay with DU-145, with HL-60, with HOP-62 and with IGROV-1 was > 100 µM (inactive) throughout. Moreover, the GI50 in the assay on K562, with LOX IMVI, with M14, in the assay with MCF7, with MDA-MB-435 and in the assay with MOLT-4 was > 100 µM (inactive) throughout. Moreover, the GI50 with NCI-H226, in the assay with OVCAR-3, in the assay with RPMI-8226, with SK-MEL-2, with SK-OV-3 and in the assay with SNB-19 was > 100 µM (inactive) each time. Also, the GI50 in the assay with T47D and in the assay with TK-10 was > 100 µM (inactive) each time.

Take `CCCCCCC(=O)O[C@H]1CC[C@H]2[C@@H]3CCC4C/C(=N/NC(=O)c5cccc6c(=O)c7ccccc7[nH]c56)C=C(C)[C@]4(C)[C@H]3CC[C@]12C` (stereo not given in full): the GI50 with ACHN, with CCRF-CEM, in the assay with DU-145, with HL-60, in the assay with HOP-62 and with IGROV-1 was > 25 µM (inactive) throughout. In addition, the GI50 with K562, in the assay on LOX IMVI, with M14, in the assay with MCF7, in the assay on MDA-MB-435 and in the assay with MOLT-4 was > 25 µM (inactive) throughout. For the same molecule, the GI50 with NCI-H226, in the assay with OVCAR-3, in the assay on RPMI-8226, with SK-MEL-2, with SK-OV-3 and with SNB-19 was > 25 µM (inactive) in each case. In addition, the GI50 in the assay with T47D and in the assay on TK-10 was > 25 µM (inactive) in each case.

Regarding `COc1cc(C2c3cc4c(cc3OC(Nc3ccccc3)C2C)OCO4)cc(OC)c1OC` (stereo not given), the GI50 is 1.39 µM (inactive) in the assay on ACHN; 0.315 µM (active) in the assay on CCRF-CEM; 0.923 µM (active) in the assay on DU-145; 0.275 µM (active) in the assay on HL-60; 0.366 µM (active) in the assay on HOP-62; 1.41 µM (inactive) in the assay on IGROV-1. The GI50 in the assay on K562 was 0.282 µM (active); in the assay on LOX IMVI, 0.593 µM (active); in the assay on M14 it was 0.381 µM (active); in the assay with MCF7 it was 0.536 µM (active); with MDA-MB-435, 0.139 µM (active); in the assay on MOLT-4, 0.416 µM (active). The GI50 in the assay with NCI-H226 is 1.13 µM (inactive); with OVCAR-3 it was 0.323 µM (active); in the assay on RPMI-8226, 0.608 µM (active); in the assay with SK-MEL-2, 5.65 µM (inactive); with SK-OV-3, 1.08 µM (active); in the assay with SNB-19, 1.19 µM (inactive). For the same molecule, the GI50 in the assay on T47D was 42.3 µM (inactive); in the assay on TK-10 it was 23.6 µM (inactive).

With `O=C1/C(=C\c2ccc(Br)cc2)CCCc2ccccc21`, the GI50 in the assay with ACHN was 16.9 µM (inactive); in the assay with CCRF-CEM, 19.7 µM (inactive); with DU-145, 15.5 µM (inactive); in the assay with HL-60 it was 14.2 µM (inactive); with HOP-62, 46.5 µM (inactive); in the assay on IGROV-1 it was 16.4 µM (inactive). In addition, the GI50 in the assay on K562 is 41.8 µM (inactive); with LOX IMVI, 16.3 µM (inactive); in the assay with M14 it was 29.6 µM (inactive); with MCF7, 19.5 µM (inactive); in the assay with MDA-MB-435, 19.2 µM (inactive); with MOLT-4, 18.1 µM (inactive). Also, the GI50 with NCI-H226 is 14.4 µM (inactive); in the assay on OVCAR-3, 20.8 µM (inactive); in the assay on RPMI-8226, 17.1 µM (inactive); in the assay with SK-MEL-2, 19.1 µM (inactive); in the assay with SK-OV-3, 35.6 µM (inactive); with SNB-19, 16.6 µM (inactive). The GI50 in the assay on T47D was 10.5 µM (inactive); in the assay with TK-10, 18.7 µM (inactive).

Turning to `CC(=O)Nc1ccc(NS(=O)(=O)c2ccc3nc(C)n(NS(=O)(=O)c4ccc(NC(C)=O)cc4)c(=O)c3c2)cc1`, the GI50 with ACHN, in the assay with CCRF-CEM, with DU-145, in the assay on HL-60, in the assay with HOP-62 and with IGROV-1 was > 100 µM (inactive) each time. The GI50 with K562, in the assay with LOX IMVI, in the assay on M14, in the assay with MCF7, in the assay on MDA-MB-435 and with MOLT-4 was > 100 µM (inactive) throughout. Further, the GI50 with NCI-H226, in the assay on OVCAR-3, with RPMI-8226, in the assay on SK-MEL-2, in the assay with SK-OV-3 and in the assay on SNB-19 was > 100 µM (inactive) each time. For the same molecule, the GI50 in the assay with T47D and in the assay with TK-10 was > 100 µM (inactive) throughout.

In the case of `COc1cc2c(cc1OC)C/C(=N\O)c1cc(OC)c(OC)cc1/C=C\2`, the GI50 in the assay on ACHN was 12.9 µM (inactive); in the assay with CCRF-CEM it was 13.1 µM (inactive); with DU-145, 4.49 µM (inactive); in the assay with HL-60, 3.03 µM (inactive); with HOP-62, 2.82 µM (inactive); with IGROV-1, 3.37 µM (inactive). For the same molecule, the GI50 in the assay on K562 was 4.86 µM (inactive); with LOX IMVI it was 6.4 µM (inactive); with M14, 3.47 µM (inactive); with MCF7, 5.27 µM (inactive); with MDA-MB-435 it was 0.822 µM (active); with MOLT-4, 6.41 µM (inactive). Besides, the GI50 in the assay on NCI-H226 is 5.56 µM (inactive); in the assay with OVCAR-3, 3.67 µM (inactive); in the assay with RPMI-8226, 3.82 µM (inactive); in the assay with SK-MEL-2, 3.44 µM (inactive); in the assay on SK-OV-3, 13.1 µM (inactive); in the assay on SNB-19, 7.08 µM (inactive). In addition, the GI50 is 10.6 µM (inactive) in the assay on T47D and 18.8 µM (inactive) in the assay with TK-10.

On to `COc1cccc(C2c3cc4c(cc3OC(NNC(N)=O)C2C)OCO4)c1O` (stereo not given), for which the GI50 with ACHN was 3.47 µM (inactive); in the assay on CCRF-CEM it was 0.929 µM (active); in the assay with DU-145, 4.25 µM (inactive); in the assay on HL-60, 1.05 µM (active); with HOP-62, 1.35 µM (inactive); in the assay with IGROV-1 it was 2.58 µM (inactive). Besides, the GI50 was 0.516 µM (active) with K562; 0.933 µM (active) in the assay with LOX IMVI; 0.513 µM (active) in the assay with M14; 0.491 µM (active) with MCF7; 0.216 µM (active) in the assay on MDA-MB-435; 1.42 µM (inactive) in the assay with MOLT-4. Besides, the GI50 in the assay on NCI-H226 was 2 µM (inactive); in the assay on OVCAR-3, 0.783 µM (active); in the assay with RPMI-8226 it was 2.32 µM (inactive); in the assay with SK-MEL-2 it was 0.703 µM (active); with SK-OV-3, 5.94 µM (inactive); in the assay with SNB-19 it was 9.14 µM (inactive). The GI50 with T47D was 61 µM (inactive); with TK-10, 9.18 µM (inactive).

`COc1ccc(O)c(/C=N/NC(=S)N2CCCCC2)c1`: the GI50 in the assay with ACHN was 0.906 µM (active); with CCRF-CEM, 0.569 µM (active); with DU-145, 1.74 µM (inactive); in the assay on HL-60 it was 0.131 µM (active); in the assay on HOP-62 it was 1.35 µM (inactive); with IGROV-1 it was 2.78 µM (inactive). The GI50 with K562 is 3.05 µM (inactive); in the assay with LOX IMVI it was 0.767 µM (active); with M14 it was 0.592 µM (active); in the assay on MCF7 it was 7.96 µM (inactive); in the assay on MDA-MB-435, 6.07 µM (inactive); in the assay with MOLT-4, 1.3 µM (inactive). The GI50 in the assay with NCI-H226 was 1.07 µM (active); with OVCAR-3, 0.319 µM (active); in the assay on RPMI-8226, 1.05 µM (active); with SK-MEL-2 it was 25.1 µM (inactive); with SK-OV-3, 2.16 µM (inactive); with SNB-19, 4.51 µM (inactive). The values for the GI50 with T47D and in the assay on TK-10 were 6.71 µM (inactive) and 3.61 µM (inactive), respectively.

On to `CCc1[nH]c(=O)nc(N)c1-c1ccc(N2CCCCC2)c([N+](=O)[O-])c1`, for which the GI50 with ACHN was > 100 µM (inactive); in the assay on CCRF-CEM, > 100 µM (inactive); in the assay with DU-145 it was > 100 µM (inactive); in the assay on HL-60, 88.7 µM (inactive); in the assay on HOP-62, > 100 µM (inactive); with IGROV-1, > 100 µM (inactive). Moreover, the GI50 with K562, with LOX IMVI, in the assay with M14, in the assay with MCF7, in the assay on MDA-MB-435 and in the assay with MOLT-4 was > 100 µM (inactive) each time. Besides, the GI50 with NCI-H226, with OVCAR-3, in the assay on RPMI-8226, in the assay with SK-MEL-2, in the assay on SK-OV-3 and with SNB-19 was > 100 µM (inactive) throughout. Besides, the GI50 in the assay with T47D and in the assay with TK-10 was > 100 µM (inactive) in each case.
